Publication PMC11768839 (Viruses, 2024)
Several values for one entry are separate records, joined by “and”; a condition that tells them apart may be missing. Equal entries are not always repeated.

Tests used:
Coronavirus (HCoV-229E) = experiment: HCoV-229E qPCR assay (viral RNA release into media) in Huh7 cells
[1] = Cytotoxicity in Huh7 cells (alamarBlue); format: cell-based; conditions: human, listed with HCoV-229E qPCR assay
in vitro = conditions: human
Influenza A Virus (PR8) [2] = experiment: Influenza PR8 TCID50 assay (infectivity) in A549 cells; conditions: MOI of 2, A549 cells
[3] = format: in vivo
SARS-CoV-2 [4] = experiment: SARS-CoV-2 replication in human lung organoids (RTqPCR of media); format: cell-based; conditions: 2.5 µM added post-infection, SB2, MOI of 2, 3 or 6 days post-infection
HCoV-OC43 [5] = experiment: HCoV-OC43 viral release into media (RTqPCR) in Huh7 cells; conditions: 2.5 µM, MOI of 2, 24 h
HCoV-229E [6] = experiment: HCoV-229E intracellular viral RNA accumulation after delayed compound addition; format: cell-based; conditions: compound added 16 hpi, 9 h after addition, MOI 2, Huh7 cells
HCoV-OC43 [7] = experiment: HCoV-OC43 replication in human lung organoids (RTqPCR of media); format: cell-based; conditions: 2.5 µM added post-infection, MOI of 2, 3 or 6 days post-infection
HCoV-229E [8] = experiment: HCoV-229E infectious virus yield by TCID50 assay in Huh7 cells; conditions: dose reducing HCoV-229E RNA in media by 50% (EC50, 1.2 µM), 24 h
[9] = tested on: SARS-CoV-2 nucleocapsid (N) protein; experiment: SARS-CoV-2 nucleocapsid (N) protein expression by western blot; format: cell-based; conditions: SARS-CoV-2 SB2, Huh7 cells, immunoblot
Influenza A Virus (PR8) [10] = experiment: Influenza PR8 qPCR assay (viral RNA release into media) in A549 cells
HIV-1 = tested on: HIV-1; set-up: method as in earlier work; conditions: HIV-1 replication; cited from earlier work
Pharmacokinetics in mice = format: in vivo
SARS-CoV-2 [11] = format: cell-based
HAdV-C5 = experiment: Adenovirus HAdV-C5 virus yield in A549 cells (endpoint dilution); format: cell-based, human adenovirus serotype 5; conditions: 5 µM, HAdV-C5 100 IU/cell, 24 hpi

Q: With `CC(C)(C)NC(=O)N[C@H](C(=O)N1C[C@H]2[C@@H]([C@H]1C(=O)NC(CC1CCC1)C(=O)C(N)=O)C2(C)C)C(C)(C)C` (stereo partly drawn) [Boceprevir, reference compound] as the molecule, how does the EC50 (Coronavirus (HCoV-229E); MOI of 2, Huh7 cells) read?
A: The EC50 was 111 ± 24 nM.

Q: And the EC90 (Coronavirus (HCoV-229E); MOI of 2, Huh7 cells)?
A: Its EC90 is 1200 ± 95 nM.

Q: What about the CC50 ([1]; MOI of 2) of the same molecule?
A: Its CC50 is greater than 100000 nM.

Q: Which CC50 (in vitro) does the source give for `CCOC(=O)C1=C[C@@H](OC(CC)CC)[C@H](NC(C)=O)[C@@H](N)C1` [Oseltamivir] here?
A: The CC50 was greater than 100000 nM.

Q: And the EC50 (Influenza A Virus (PR8) [2])?
A: Its EC50 is 257 ± 40 nM.

Q: What about the EC90 (Influenza A Virus (PR8) [2]) of the same molecule?
A: Its EC90 is 1500 ± 209 nM.

Q: Which results are given for `O=[N+]([O-])c1ccc(Nc2ccc(Cl)c(C(F)(F)F)c2)c2nonc12` [Compound 5342191, N-[4-chloro-3-(trifluoromethyl)phenyl]-7-nitro-2,1,3-benzoxadiazol-4-amine]?
A: body weight / gross necroscopy findings ([3]; 5342191-treated mice): absence of significant changes in body weight; tolerability ([3]; daily oral dose of 40 mg/kg over 7 days, mice): well tolerated; SARS-CoV-2 replication in human lung organoids (SARS-CoV-2 [4]): effectively blocked; inhibition of viral release into the media (HCoV-OC43 [5]): over 90%; reduction of viral genomic RNA accumulation (HCoV-229E [6]): ~ 50%; HCoV-OC43 replication in human lung organoids (HCoV-OC43 [7]): effectively blocked; effect on cell metabolism (A549 cells): limited effect; reduction in infectious virus yield (HCoV-229E [8]): over 90%; reduction of SARS-CoV-2 nucleocapsid (N) protein expression [9]: approximately 90%; EC50 (Influenza A Virus (PR8) [10]; MOI of 0.01): 47 ± 13 nM; EC90 (Influenza A Virus (PR8) [10]; MOI of 0.01): 149 ± 55 nM; EC50 (Influenza A Virus (PR8) [10]; MOI of 2): 51 ± 42 nM; EC90 (Influenza A Virus (PR8) [10]; MOI of 2): 104 ± 23 nM; EC50 (Coronavirus (HCoV-229E); MOI of 0.01): 73 ± 13 nM; EC90 (Coronavirus (HCoV-229E); MOI of 0.01): 857 ± 56 nM; EC50 (Coronavirus (HCoV-229E); MOI of 2, Huh7 cells): 1200 ± 196 nM; EC90 (Coronavirus (HCoV-229E); MOI of 2, Huh7 cells): 2500 ± 282 nM; EC50 (Influenza A Virus (PR8) [2]): 75 ± 17 nM; EC90 (Influenza A Virus (PR8) [2]): 99 ± 8 nM; EC50 (HIV-1): 750 nM; EC90 (HIV-1): 1750 nM; CC50 ([1]; MOI of 0.01): > 1000 nM; CC50 ([1]; MOI of 2): 34000 ± 755 nM; oral bioavailability (Pharmacokinetics in mice): orally bioavailable; blood concentration maintained (Pharmacokinetics in mice; oral dose of 30 mg/kg, up to 8 h after administration, 30 mg/kg): 2 µg/mL and 5.5 µM; suppression of the release of SARS-CoV-2 (SARS-CoV-2 [11]): approximately 80%; reduction in virus yield (maximal effect) (HAdV-C5): ~ 1000 fold

Q: Which results are given for `CC(C)C(=O)OC[C@H]1O[C@@H](n2ccc(NO)nc2=O)[C@H](O)[C@@H]1O` [Molnupiravir, reference compound]?
A: EC50 (Coronavirus (HCoV-229E); MOI of 2, Huh7 cells): 25 ± 9 nM; EC90 (Coronavirus (HCoV-229E); MOI of 2, Huh7 cells): 137 ± 23 nM; CC50 ([1]; MOI of 2): > 100000 nM

Q: Which CC50 (in vitro) does the source give for `NC(=O)c1nc(F)c[nH]c1=O` [Favipiravir] here?
A: Its CC50 is greater than 100000 nM.

Q: And the EC50 (Influenza A Virus (PR8) [2])?
A: Its EC50 is 1200 ± 135 nM.

Q: And the EC90 (Influenza A Virus (PR8) [2])?
A: The EC90 was 6200 ± 332 nM.
